Measurements as given in patent US4107424A, “1-N-[(S)-α-hydroxy-ω-aminoacyl] derivatives of 3',4'-dideoxykanamycin B and 3'-deoxykanamycin B antibiotics” (Zaidan Hojin Biseibutsu Kagaku Kenkyu Kai, priority 1972, dated 1978).
Converted amounts (≈) assume the structure as drawn. Like-named read-outs stand apart in the source and are kept apart here.

Assays:
[1] = system: Pseudomonas aeruginosa No.12; experiment: Minimal inhibitory concentration, agar dilution streak method; assay type: cell-based; settings: nutrient agar, 37° C, 18 hours, read-out: Minimal inhibitory concentration
Protocol: (§1) *Agar Agar dilution streak method (nutrient agar, 37° C, 18 hours)
(§2) *Agar dilution streak method (nutrient agar, 37° C, 18 hours).

[2] = system: Escherichia coli K-12 ML 1629; experiment: as above; assay type: cell-based; settings: K12ML1629, nutrient agar, 37° C, 18 hours, read-out: Minimal inhibitory concentration
Protocol: as §1, §2

Escherichia coli K-12 = experiment: as above; assay type: cell-based; settings: K12, nutrient agar, 37° C, 18 hours, read-out: Minimal inhibitory concentration
Protocol: as §1, §2

[3] = system: Escherichia coli K-12 ML 1630; experiment: as above; assay type: cell-based; settings: K12ML1630, nutrient agar, 37° C, 18 hours, read-out: Minimal inhibitory concentration
Protocol: as §1, §2

[4] = system: Escherichia coli K-12 LA 290 R 64; experiment: as above; assay type: cell-based; settings: nutrient agar, 37° C, 18 hours, read-out: Minimal inhibitory concentration
Protocol: as §1, §2

[5] = system: Escherichia coli K-12 ML 1410; experiment: as above; assay type: cell-based; settings: K12ML1410, nutrient agar, 37° C, 18 hours, read-out: Minimal inhibitory concentration
Protocol: as §1, §2

[6] = system: Escherichia coli K-12 LA 290 R 56; experiment: as above; assay type: cell-based; settings: 18 h, read-out: Minimal inhibitory concentration
Protocol: as §1, §2

[7] = system: Pseudomonas aeruginosa A 3; experiment: as above; assay type: cell-based; settings: A3, nutrient agar, 37° C, 18 hours, read-out: Minimal inhibitory concentration
Protocol: as §1, §2

[8] = system: Klebsiella pneumoniae type 22 #3038; experiment: as above; assay type: cell-based; settings: Klebsiella pneumoniae; nutrient agar, 37° C, 18 hours
Protocol: as §1, §2

[9] = system: Escherichia coli K-12 LA 290 R 55; experiment: as above; assay type: cell-based; settings: 18 h, read-out: Minimal inhibitory concentration
Protocol: as §1, §2

[10] = system: Pseudomonas aeruginosa TI-13; experiment: as above; assay type: cell-based; settings: TI13, nutrient agar, 37° C, 18 hours, read-out: Minimal inhibitory concentration
Protocol: as §1, §2

[11] = system: Pseudomonas aeruginosa GN 315; experiment: as above; assay type: cell-based; settings: GN315, nutrient agar, 37° C, 18 hours, read-out: Minimal inhibitory concentration
Protocol: as §1, §2

[12] = system: Staphylococcus aureus FDA 209P; experiment: as above; assay type: cell-based; settings: FDA209P, nutrient agar, 37° C, 18 hours, read-out: Minimal inhibitory concentration
Protocol: as §1, §2

[13] = system: Escherichia coli K-12 JR 66/W 677; experiment: as above; assay type: cell-based; settings: Escherichia coli, 18 h, read-out: Minimal inhibitory concentration
Protocol: as §1, §2

[14] = system: Escherichia coli K-12 ML 1410 R 81; experiment: as above; assay type: cell-based; settings: 18 h, read-out: Minimal inhibitory concentration
Protocol: as §1, §2

[15] = system: Escherichia coli K-12 W 677; experiment: as above; assay type: cell-based; settings: K12W677, nutrient agar, 37° C, 18 hours, read-out: Minimal inhibitory concentration
Protocol: as §1, §2

[16] = system: Pseudomonas aeruginosa 99; experiment: as above; assay type: cell-based; settings: nutrient agar, 37° C, 18 hours, read-out: Minimal inhibitory concentration
Protocol: (§3) [α]D^22 + 38°, (c 0.85, water).
as §1, §2

[17] = system: Bacillus subtilis NRRL B-558; experiment: as above; assay type: cell-based; settings: NRRLB558, nutrient agar, 37° C, 18 hours
Protocol: as §3, §1, §2

Proteus rettgeri GN 311 = experiment: as above; assay type: cell-based; settings: Providencia rettgeri, GN311; nutrient agar, 37° C, 18 hours
Protocol: as §3, §1, §2

Salmonella typhosa T-63 = experiment: as above; assay type: cell-based; settings: Salmonella enterica, nutrient agar, 37° C, 18 hours
Protocol: as §3, §1, §2

Escherichia coli NIHJ = experiment: as above; assay type: cell-based; settings: nutrient agar, 37° C, 18 hours
Protocol: as §3, §1, §2

[18] = system: Klebsiella pneumoniae PCI 602; experiment: as above; assay type: cell-based; settings: PCI602, nutrient agar, 37° C, 18 hours
Protocol: as §3, §1, §2

Sarcina lutea PCI 1001 = experiment: as above; assay type: cell-based; settings: Micrococcus luteus, read-out: Minimal inhibitory concentration
Protocol: as §3, §1, §2

Proteus rettgeri GN 466 = experiment: as above; assay type: cell-based; settings: Providencia rettgeri, GN466; nutrient agar, 37° C, 18 hours
Protocol: as §3, §1, §2

[19] = system: Escherichia coli K-12 R-5; experiment: as above; assay type: cell-based; settings: K12R5, nutrient agar, 37° C, 18 hours
Protocol: as §3, §1, §2

[20] = system: Escherichia coli K-12 C 600 R 135; experiment: as above; assay type: cell-based; settings: 18 h, read-out: Minimal inhibitory concentration
Protocol: as §3, §1, §2

[21] = system: Escherichia coli J 5 R 11-2; experiment: as above; assay type: cell-based; settings: J5R112, 18 h, read-out: Minimal inhibitory concentration
Protocol: as §3, §1, §2

[22] = system: kanamycin-resistant strains; settings: strains producing 3'-hydroxyl phosphorylating enzyme; cited from earlier work
[23] = system: Mycobacterium smegmatis ATCC 607; experiment: Minimal inhibitory concentration, agar dilution streak method; assay type: cell-based; settings: Mycolicibacterium smegmatis, ATCC607, nutrient agar, 37° C
[24] = system: gram-positive and gram-negative bacteria; experiment: Antibacterial activity (in words); assay type: cell-based; settings: various gram-positive and gram-negative bacteria, including resistant strains
Protocol: as §3

in vivo = settings: mouse, iv
[25] = system: Staphylococcus aureus Smith; experiment: Minimum inhibitory concentration, serial dilution method; assay type: cell-based; settings: nutrient agar, 37° C, 18 hours, read-out: Minimum inhibitory concentrations
[26] = system: Shigella flexneri 4b JS 11811; experiment: as above; assay type: cell-based; settings: 4BJS11811, nutrient agar, 37° C, 18 hours, read-out: Minimum inhibitory concentrations
[27] = system: Staphylococcus aureus Terajima; experiment: as above; assay type: cell-based; settings: nutrient agar, 37° C, 18 hours, read-out: Minimum inhibitory concentrations
Bacillus anthracis = experiment: microbe, parasite or virus in culture; assay type: cell-based; settings: 18 h, read-out: Minimum inhibitory concentrations
[28] = system: Bacillus cereus ATCC 10702; experiment: Minimum inhibitory concentration, serial dilution method; assay type: cell-based; settings: ATCC10702, nutrient agar, 37° C, 18 hours, read-out: Minimum inhibitory concentrations
[29] = system: Bacillus subtilis PCI 219; experiment: as above; assay type: cell-based; settings: PCI219, nutrient agar, 37° C, 18 hours, read-out: Minimum inhibitory concentrations
[30] = system: Klebsiella pneumoniae PCI 1602; experiment: as above; assay type: cell-based; settings: PCI1602, nutrient agar, 37° C, 18 hours, read-out: Minimum inhibitory concentrations
[31] = system: Corynebacterium bovis 1810; experiment: as above; assay type: cell-based; settings: Corynebacterium bovis, 1810; nutrient agar, 37° C, 18 hours; read-out: Minimum inhibitory concentrations
Shigella sonnei JS 11746 = experiment: as above; assay type: cell-based; settings: JS11746, nutrient agar, 37° C, 18 hours, read-out: Minimum inhibitory concentrations
Proetus vulgaris OX 19 = experiment: as above; assay type: cell-based; settings: nutrient agar, 37° C, 18 hours; read-out: Minimum inhibitory concentrations
[32] = system: Shigella dysenteriae JS 11910; experiment: as above; assay type: cell-based; settings: JS11910, 18 h, read-out: Minimum inhibitory concentrations
mice = experiment: Acute intravenous toxicity (LD50) in mice; settings: in words
[33] = system: Salmonella enteritidis 1891; experiment: Minimum inhibitory concentration, serial dilution method; assay type: cell-based; settings: Salmonella enterica, nutrient agar, 37° C, 18 hours, read-out: Minimum inhibitory concentrations

| SMILES | MIC [1] [µg/mL] | MIC [2] [µg/mL] | MIC (Escherichia coli K-12) [µg/mL] | MIC [3] [µg/mL] | MIC [4] [µg/mL] | MIC [5] [µg/mL] | MIC [6] [µg/mL] | MIC [7] [µg/mL] | MIC [8] [µg/mL] | MIC [9] [µg/mL] | MIC [10] [µg/mL] | MIC [11] [µg/mL] | MIC [12] [µg/mL] | MIC [13] [µg/mL] | MIC [14] [µg/mL] | MIC [15] [µg/mL] | MIC [16] [µg/mL] | MIC (Salmonella typhosa T-63) [µg/mL] | MIC (Escherichia coli NIHJ) [µg/mL] | MIC [19] [µg/mL] | further results |
| --- | --- | --- | --- | --- | --- | --- | --- | --- | --- | --- | --- | --- | --- | --- | --- | --- | --- | --- | --- | --- | --- |
| NC[C@@H]1CC[C@@H](N)[C@@H](O[C@H]2[C@H](O)[C@@H](O)[C@H](N)C[C@@H]2N)O1 [3',4'-dideoxyneamine] | 25 (≈ 86.1 µM) | 12.5 (≈ 43 µM) | 6.25 (≈ 21.5 µM) | 12.5 (≈ 43 µM) | 12.5 (≈ 43 µM) | 6.25 (≈ 21.5 µM) | 6.25 (≈ 21.5 µM) | 25 (≈ 86.1 µM) | 25 (≈ 86.1 µM) | 6.25 (≈ 21.5 µM) | 25 (≈ 86.1 µM) | > 100 | 6.25 (≈ 21.5 µM) | 25 (≈ 86.1 µM) | 25 (≈ 86.1 µM) | 6.25 (≈ 21.5 µM) | 50 (≈ 172 µM) | 3.12 (≈ 10.7 µM) | 12.5 (≈ 43 µM) | 50 (≈ 172 µM) | MIC [17]: 0.39 µg/mL (≈ 1.34 µM); MIC (Proteus rettgeri GN 311): 50 µg/mL (≈ 172 µM); MIC [18]: 25 µg/mL (≈ 86.1 µM); MIC (Sarcina lutea PCI 1001; PCI1001, nutrient agar, 37° C, 18 hours): 50 µg/mL (≈ 172 µM); MIC (Proteus rettgeri GN 466): 25 µg/mL (≈ 86.1 µM); MIC [20]: 12.5 µg/mL (≈ 43 µM); MIC [21]: 6.25 µg/mL (≈ 21.5 µM); activity against kanamycin-resistant strains [22]: actually effective; MIC ([23]; 48 hours, read-out: Minimal inhibitory concentration): 25 µg/mL (≈ 86.1 µM) |
| NCC[C@H](O)C(=O)N[C@@H]1C[C@H](N)[C@@H](O[C@H]2O[C@H](CN)[C@@H](O)[C@H](O)[C@H]2N)[C@H](O)[C@H]1O[C@H]1O[C@H](CO)[C@@H](O)[C@H](N)[C@H]1O [AHB-kanamycin B, 1-N-[(S)-4-amino-2-hydroxybutyryl]-kanamycin B] | 6.25 (≈ 10.7 µM) | 1.56 (≈ 2.67 µM) | 0.78 (≈ 1.33 µM) | 1.56 (≈ 2.67 µM) | 0.39 (≈ 0.667 µM) | 3.13 (≈ 5.35 µM) | 0.39 (≈ 0.667 µM) | 6.25 (≈ 10.7 µM) | 6.25 (≈ 10.7 µM) | 1.56 (≈ 2.67 µM) | 6.25 (≈ 10.7 µM) | 50 (≈ 85.5 µM) | 0.78 (≈ 1.33 µM) | 3.12 (≈ 5.34 µM) | 1.56 (≈ 2.67 µM) | 0.39 (≈ 0.667 µM) | 25 (≈ 42.8 µM) | 0.39 (≈ 0.667 µM) | 0.78 (≈ 1.33 µM) | 0.78 (≈ 1.33 µM) | antibacterial activity [24]: high antibacterial activity not only against various gram-positive and gram-negative bacteria which are sensitive to kanamycins, but also against the drug-resistant strains of Escherichia coli and Pseudomonas aeruginosa; LD50 (in vivo): > 100 mg/kg; MIC [25]: < 0.2 µg/mL; MIC [26]: 3.12 µg/mL (≈ 5.34 µM); MIC [27]: 0.2 µg/mL (≈ 0.342 µM); MIC (Sarcina lutea PCI 1001; PCI1001, 18 h): 3.13 µg/mL (≈ 5.35 µM); MIC (Bacillus anthracis): < 0.2 µg/mL; MIC [28]: 1.56 µg/mL (≈ 2.67 µM); MIC [29]: < 0.2 µg/mL; MIC [30]: 0.39 µg/mL (≈ 0.667 µM); MIC ([23]; 18 hours, read-out: Minimum inhibitory concentrations): 0.78 µg/mL (≈ 1.33 µM); MIC [31]: 0.39 µg/mL (≈ 0.667 µM); MIC (Shigella sonnei JS 11746): 1.56 µg/mL (≈ 2.67 µM); MIC (Proetus vulgaris OX 19): 1.56 µg/mL (≈ 2.67 µM); MIC [32]: 3.12 µg/mL (≈ 5.34 µM); toxicity (mice): low toxicity to animals and men; MIC [33]: 3.12 µg/mL (≈ 5.34 µM) |
